Measurements published in patent US20220088014A1 (priority 2019, published 2022).
Where two headings read alike, the source gives them in different places.

Assays:
[1] = Pretreatment study: effect on heroin self-administration; format: in vivo, rhesus monkeys
[2] = IV self-administration substitution study in heroin-maintained primates (FR 30)
[3] = Dose-finding study: lever pressing for food (FR 10); conditions: two monkeys
[4] = Rat tolerance/dependence study, 28 day repeated dosing and withdrawal
[5] = rat, in vivo
[6] = Cue-induced reinstatement (relapse) in heroin addicted rats; format: in vivo, male Long-Evans hooded rats

Compound: O=C1CN2c3c(cccc3[C@@H]3CN(CCCOc4ccc(F)cc4)CC[C@@H]32)N1 [Example 1, (6bR,10aS)-8-(3-(4-fluorophenoxy)propyl)-6b,7,8,9,10,10a-hexahydro-1H-pyrido[3′,4′:4,5]pyrrolo[1,2,3-de]quinoxalin-2(3H)-one]
- Heroin infusions per session (mean ± SEM, N = 4) ([1]; pretreatment 0.1 mg/kg IV 15 minutes prior): 24.8 ± 0.8
- Heroin infusions per session (mean ± SEM, N = 4) ([1]; pretreatment 1.0 mg/kg IV 15 minutes prior): 23.3 ± 2.8
- Heroin infusions per session (mean ± SEM, N = 4) ([1]; pretreatment 1.0 mg/kg SC (100% PEG) 15 minutes prior): 24.5 ± 1.9
- Infusions per session (mean ± SEM, N = 4) ([2]; 0.01 mg/kg/infusion IV): 0.6 ± 0.2
- Infusions per session (mean ± SEM, N = 4) ([2]; 0.1 mg/kg/infusion IV): 1.5 ± 0.3
- average rate of responding for food ([3]; 0.0001 mg/kg IV): 0.94±0.01 responses per second
- average rate of responding for food ([3]; 0.001 mg/kg IV): 0.86±0.11 responses per second
- average rate of responding for food ([3]; 0.01 mg/kg IV): 0.97±0.21 responses per second
- average rate of responding for food ([3]; 0.1 mg/kg IV): 0.98±0.24 responses per second
- predominant behavioral and physical effects during the dosing phase ([4]; 0.3 mg/kg s.c. four times per day): hunched posture, Straub tail and piloerection
- tolerance during dosing for 28 days ([4]; 0.3 and 3 mg/kg s.c. four times per day): does not produce tolerance
- physical dependence upon cessation of dosing ([4]; 0.3 and 3 mg/kg s.c. four times per day, 28 days): not to produce a syndrome of physical dependence
- effect on animal body weight, food and water intake or body temperature ([4]; 0.3 and 3 mg/kg s.c. four times per day, on-dose or withdrawal phase): no significant effect
- main behavioral and physical signs during the dosing phase ([4]; higher dose, 3 mg/kg s.c. four times per day): hunched posture, subdued behavior, Straub tail, tail rattle and piloerection
- t-1/2 ([5]; po, 10 mg/kg): 3.1 h
- t-1/2 ([5]; sc, 3 mg/kg): 9.5 h
- Active lever presses during the reinstatement test session ([6]; 1 mg/kg s.c. 30 minutes pre-session): 22.64
- Active lever presses during the reinstatement test session ([6]; 3 mg/kg s.c. 30 minutes pre-session): 31.17
- Active lever presses during the reinstatement test session ([6]; 10 mg/kg s.c. 30 minutes pre-session): 29.50

Compound: CN1CC[C@]23c4c5ccc(O)c4O[C@H]2[C@@H](O)C=C[C@H]3[C@H]1C5 [Morphine, morphine, reference compound]
- tolerance and dependence ([4]; 30 mg/kg orally twice per day, 28 days): clear signs of tolerance and dependence
